The text below walks through data of paper PMC4472782, “Antibacterial Characterization of Novel Synthetic Thiazole Compounds against Methicillin-Resistant Staphylococcus pseudintermedius” (PLoS ONE, 2015).

≈ marks a conversion by molar mass, not a printed value.

Data set [1] is described as follows: Kinetic (turbidimetric) solubility in PBS. It is filed as physicochemical. Particulars: aqueous buffer, kinetic from dmso stock; phosphate-buffered saline; highest concentration with no precipitate; read-out: Solubility Limit. The protocol: The absorbance of the PBS-containing plate was measured prior to addition of the test agents to determine the background absorbance. After 2 hours, the presence of precipitate was detected by turbidity (absorbance at 540 nm).

The test system of another data set is MRSP SP3. The data set can be described thus: Time-kill analysis against MRSP. Format: cell-based, Staphylococcus pseudintermedius. Particulars: 4 × MIC, MRSP SP3, 24 hour incubation at 37°C. The protocol: MRSP SP3 cells in late logarithmic growth phase were diluted to ~1 × 10^6 CFU/mL and exposed to concentrations equivalent to 4 × MIC (in triplicate) of thiazole compounds 1–6 and rifampicin in MHB. Samples (20 μL) were collected after 0, 2, 4, 6, 8, 10, 12, and 24 hours of incubation at 37°C and subsequently serially diluted in PBS. Bacteria were then transferred to TSA plates and incubated at 37°C for 20–24 hours before viable CFU/mL values were determined.

The test system of data set [2] is murine macrophage cell line (J774.A1). The data set can be described thus: In vitro cytotoxicity analysis (MTS assay). It is filed as cell-based. Particulars: 10 μg/mL, J774.A1, two hours. The procedure: Compounds were assayed at concentrations of 5 μg/mL, 10 μg/mL, 20 μg/mL, and 40 μg/mL against a murine macrophage cell line (J774.A1) (ATCC TIB-67, American Type Culture Collection (ATCC), Manassas, VA, USA) to determine the potential toxic effect in vitro. Cells were cultured in Dulbeco’s modified Eagle’s medium (Sigma-Aldrich, St. Louis, MO, USA) with 10% fetal bovine serum (USA Scientific, Inc.) at 37°C with 5% CO2. Controls received DMSO alone at a concentration equal to that in drug-treated cell samples. The cells were incubated with the compounds in a 96-well plate at 37°C and 5.0% CO2 for two hours prior to addition of the assay reagent MTS 3-(4,5-dimethylthiazol-2-yl)-5-(3-carboxymethoxyphenyl)-2-(4-sulfophenyl)-2H-tetrazolium) (Promega, Madison, WI, USA). Absorbance readings were taken using a kinetic ELISA microplate reader (Molecular Devices, Sunnyvale, CA, USA). The quantity of viable cells after treatment with each compound was expressed as a percentage of the control, DMSO.
All statistical analyses were performed with GraphPad Prism 6.0 (GraphPad Software, La Jolla, CA). Data generated from cytotoxicity analysis of the thiazole compounds against J774.A1 cells and the 260 and 280 nm cell leakage analysis were analyzed using one-way ANOVA, with post hoc Tukey's multiple comparisons test (P < 0.05).
Background: Formazan colour is commonly taken as a measure of viable cells.

`CCCCC#Cc1ccc(-c2nc(C)c(/C(C)=N/NC(=N)N)s2)cc1` [Compound 3]: the solubility (as a rule, the dissolved amount per volume that the medium holds) at 2 h in data set [1] was 5.51 µg/mL (≈ 15.6 µM). Moreover, in the data set with MRSP SP3, the “time required to completely eliminate MRSP” value is reported as “within two hours”. Further, in data set [2], the “toxicity to murine macrophage cells (MTS assay)” value is recorded as “not toxic”.
